# Changes are numbered by the printed parent chain.
# Key:
# [1] = test system: human neutrophils; settings: cited from earlier work
# [2] = target: T1, Lys^65Ala hFFA2 (Homo sapiens, UniProt O15552, K65A); assay: inositol monophosphate accumulation assay, Lys65Ala hFFA2; format: cell-based; parameters: NanoLuc Luciferase (N); eYFP; expressed in transfected cells; host or cells: Flp-In T-REx HEK293, doxycycline-induced
# T1 sequence (O15552 1-330 K65A): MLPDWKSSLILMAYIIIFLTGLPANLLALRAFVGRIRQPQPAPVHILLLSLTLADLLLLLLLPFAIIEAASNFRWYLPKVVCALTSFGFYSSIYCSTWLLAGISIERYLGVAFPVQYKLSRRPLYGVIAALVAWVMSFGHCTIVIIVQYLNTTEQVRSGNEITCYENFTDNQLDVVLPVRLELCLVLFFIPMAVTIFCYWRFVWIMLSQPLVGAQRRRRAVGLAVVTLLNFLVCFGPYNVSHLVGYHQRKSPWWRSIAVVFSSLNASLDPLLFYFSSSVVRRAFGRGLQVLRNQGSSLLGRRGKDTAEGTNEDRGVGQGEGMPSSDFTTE
# Protocol: (§1) All cAMP and inositol monophosphate experiments were performed using Flp-In T-REx HEK293 cells induced to express the receptor of interest. Experiments were carried out using respective homogenous time-resolved FRET-based detection kits (CisBio Bioassays; CisBio, Codolet, France) according to the manufacturer’s protocol. For the cAMP inhibition assay cells were plated at 2000 cells/well in low-volume 384-well plates. The ability of agonists to inhibit 1 μM forskolin-induced cAMP production was assessed following a co-incubation for 30 min with agonist compounds. For the inositol monophosphate accumulation assay cells were plated at 7500 cells/well in low-volume 384-well plates and incubated for 2 h at 37 °C with test compounds. To assess ability of antagonists to inhibit agonist responses, cells were pre-incubated with antagonist compounds for 30 min at 37 °C prior to addition of an EC80 concentration of agonist. Respective reactions were stopped according to the manufacturer’s instructions and the output was measured by with a PHERAstar FS plate reader (BMGLabtech, Aylesbury, UK).
# [3] = target: T2, Lys^65Glu hFFA2 (Homo sapiens, UniProt O15552, K65E); assay: HTRF cAMP inhibition assay, Lys65Glu hFFA2; format: cell-based; settings: compared to wild type hFFA2
# T2 construct: NanoLuc Luciferase (N); eYFP; expressed in transfected cells; host or cells: Flp-In T-REx HEK293, doxycycline-induced
# T2 sequence (O15552 1-330 K65E): T1 sequence (O15552 1-330 K65A) with A65E
# Protocol: as §1
# [4] = target: T1, Lys^65Ala hFFA2; settings: compared with loss of potency in inositol monophosphate assays
# Protocol: Membranes were generated from Flp-In T-REx HEK293 cells treated with 100 ng/mL doxycycline to induce expression of receptor of interest. Cells were washed with ice-cold phosphate-buffered saline, removed from dishes by scraping and centrifuged at 3000 rpm for 5 min at 4 °C. Pellets were resuspended in TE buffer (75 mM Tris-HCl, 5 mM EDTA; pH 7.5) containing a protease inhibitor mixture (Roche Applied Science, West Sussex, UK) and homogenized with a 5 ml hand-held homogenizer. This material was centrifuged at 1500 rpm for 5 min at 4 °C and the supernatant was further centrifuged at 50000 rpm for 30 min at 4 °C. The resulting pellet was resuspended in TE buffer and protein content was assessed using a BCA protein assay kit (Pierce, Fisher Scientific, Loughborough, UK).
# Binding was initiated by the addition of membranes (5 µg of protein per tube). […] Radioactivity was quantified by liquid scintillation spectrometry.
# All data are presented as means ± SEM of at least three independent experiments. […] To perform the statistical analysis of curve parameters, data from multiple experiments were fitted independently and resulting curve fit values were analysed with indicated tests. […]
# [5] = test system: Lys^65 to either Ala or Glu in hFFA2; assay: degree of bias to favor Gi-mediated signalling, Lys65 to either Ala or Glu in hFFA2; format: cell-based, human; settings: vs TGFα shedding
# Protocol: (§2) All data are presented as means ± SEM of at least three independent experiments. Data analysis and curve fitting was carried out using the GraphPad Prism software package version 5.0b (GraphPad, San Diego). […] In case of inhibition experiments with antagonists an equivalent analysis was followed to fit an inverse sigmoidal curve. To perform the statistical analysis of curve parameters, data from multiple experiments were fitted independently and resulting curve fit values were analysed with indicated tests. For radioligand binding data, saturation binding curves were generated by fitting the specific binding, which was obtained by subtracting non-specific from total binding, to a one site specific binding model that allows calculation of Kd values for the radioligand at wild type and mutant receptors. To determine affinity of unlabelled ligands, data obtained in displacement assays were fit to an inverse three parameter sigmoidal curve constrained by radioligand affinity and concentration to allow for Ki calculation. To quantify the signaling bias that mutations of hFFA2 show compared to the wild type receptor, bias factor β was calculated by determining the logarithm of the ratio of relative intrinsic activities for a ligand at two different assays[43].
# [6] = target: T1, Lys^65Ala hFFA2; assay: bias factor β calculation, Lys65Ala hFFA2 compared to WT; format: cell-based; parameters: NanoLuc Luciferase (N); eYFP; expressed in transfected cells; host or cells: Flp-In T-REx HEK293, doxycycline-induced; settings: Pathway 2 TGFα shedding
# Protocol: as §2
# [7] = target: T3, Lys^65Arg hFFA2 (Homo sapiens, UniProt O15552, K65R); assay: bias factor β calculation, Lys65Arg hFFA2 compared to WT; format: cell-based; settings: Pathway 2 TGFα shedding
# T3 construct: NanoLuc Luciferase (N); eYFP; expressed in transfected cells; host or cells: Flp-In T-REx HEK293, doxycycline-induced
# T3 sequence (O15552 1-330 K65R): T1 sequence (O15552 1-330 K65A) with A65R
# Protocol: as §2
# [8] = target: T2, Lys^65Glu hFFA2; assay: bias factor β calculation, Lys65Glu hFFA2 compared to WT; format: cell-based; settings: Pathway 2 TGFα shedding
# Protocol: as §2
# [9] = target: T4, hFFA2 (Homo sapiens, UniProt O15552); assay: TGFα shedding assay, wild type hFFA2; format: cell-based; parameters: HA-tag (C); expressed in transfected cells; host or cells: HEK293, parental and CRISPR/Cas9 G protein-deleted lines, transient transfection
# T4 sequence (O15552 1-330): T1 sequence (O15552 1-330 K65A) with A65K
# Protocol: A mixture of 250 ng AP-TGFα, 100 ng receptor of interest and 50 ng Gα protein were transfected using polyethyleneimine into one well of HEK293 cells cultured in a 12-well plate. Transfected cells were detached with PBS containing 0.05% trypsin and 0.52 mM EDTA and harvested by centrifugation at 190 × g for 5 min. The cell pellet was resuspended in PBS, followed by an incubation for 15 min at room temperature. After a second centrifugation at 190 × g for 5 min, pelleted cells were resuspended in 4 ml Hank’s Balanced Salt Solution (HBSS) containing 5 mM HEPES (pH7.4) per well in a 12-well plate. The cell suspensions were plated at 90 μl per well in a 96-well plate and incubated at 37 °C with 5% CO2 for 30 minutes. After the equilibration period 10 μl per well of 10× concentration of compounds were added and incubated for 1 h at 37 °C with 5% CO2. Plates were centrifuged at 190 × g for 2 min and 80 μL of supernatant was transferred into another 96-well plate. Solution containing p-NPP (10 mM p-NPP, 40 mM Tris-HCl (pH 9.5), 40 mM NaCl, 10 mM MgCl2) was added at 80 μl per well into supernatant-only plates as well as cell plates. […] Detailed assay development and analysis has been described previously.
# [10] = target: T2, Lys^65Glu hFFA2; assay: inositol monophosphate accumulation assay, Lys65Glu hFFA2; format: cell-based
# Protocol: as §1
# [11] = target: T1, Lys^65Ala hFFA2; assay: HTRF cAMP inhibition assay, Lys65Ala hFFA2; format: cell-based; parameters: NanoLuc Luciferase (N); eYFP; expressed in transfected cells; host or cells: Flp-In T-REx HEK293, doxycycline-induced; settings: compared to wild type hFFA2
# Protocol: as §1
# [12] = target: T3, Lys^65Arg hFFA2; parameters: method as in PMID 26991104; settings: not compatible with current results; cited from earlier work
# [13] = target: T4, hFFA2; assay: inositol monophosphate accumulation assay, wild type hFFA2; format: cell-based; parameters: expressed in transfected cells; settings: against an EC80 concentration of compound 1, wild type hFFA2; read-out: pIC50 to inhibit inositol monophosphate response, WT (converted)
# Protocol: as §1
# [14] = test system: bovine FFA2; parameters: method as in Hudson et al., unpublished; settings: bovine FFA2 has Lys at residue 65; ref Hudson et al., unpublished; cited from earlier work
# [15] = target: T5, Arg^65Lys mFFA2 (Mus musculus, UniProt Q8VCK6, R65K); assay: inositol monophosphate accumulation assay, Arg65Lys mFFA2; format: cell-based; settings: concentration-dependent
# T5 construct: eYFP; expressed in transfected cells
# T5 sequence (Q8VCK6 1-330 R65K): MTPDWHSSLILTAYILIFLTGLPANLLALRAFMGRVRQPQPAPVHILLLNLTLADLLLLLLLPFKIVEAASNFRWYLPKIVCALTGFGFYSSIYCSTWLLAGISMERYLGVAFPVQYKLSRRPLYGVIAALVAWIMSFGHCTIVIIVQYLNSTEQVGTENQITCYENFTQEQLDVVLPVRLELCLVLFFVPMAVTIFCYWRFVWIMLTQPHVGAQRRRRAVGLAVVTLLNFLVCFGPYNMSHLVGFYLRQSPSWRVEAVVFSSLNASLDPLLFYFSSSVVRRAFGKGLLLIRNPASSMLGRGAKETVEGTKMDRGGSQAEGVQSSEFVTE
# Protocol: as §1
# [16] = target: T3, Lys^65Arg hFFA2; assay: inositol monophosphate accumulation assay, Lys65Arg hFFA2; format: cell-based
# Protocol: as §1
# [17] = target: T6, mFFA2 (Mus musculus, UniProt Q8VCK6); assay: inositol monophosphate accumulation assay, mFFA2; format: cell-based; settings: EC80 concentration of C3, wild type mFFA2
# T6 construct: eYFP; expressed in transfected cells; host or cells: Flp-In T-REx HEK293, doxycycline-induced
# T6 sequence (Q8VCK6 1-330): T5 sequence (Q8VCK6 1-330 R65K) with K65R
# Protocol: as §1
compound,measurement,setting,value
"CC1(C(=O)N(CCCC(=O)O)Cc2cccc(Cl)c2)CCN1C(=O)c1csc2ccccc12 (stereo not shown) [GLPG0974, 4-[[1-(benzo[b]thiophene-3-carbonyl)-2-methylazetidine-2-carbonyl]-(3-chlorobenzyl)amino]butyric acid]",block of chemotaxis of human neutrophils,[1],effectively blocked chemotaxis of human neutrophils
"CCC(=O)O [Compound C3, propionate]","loss of agonist potency at Lys65Ala hFFA2 vs wild type, inositol monophosphate accumulation",[2]; Ala substitution,greater than 30 fold
same,maximal effect in cAMP inhibition at Lys65Glu hFFA2,[3],greater than at wild type hFFA2
same,ability to compete for binding with [3H]GLPG0974 at Lys65Ala hFFA2,[4],much less affected
same,"bias to favor Gi-mediated signalling compared to wild type hFFA2, based on [35S]GTPγS binding studies",[5],41–60 fold
same,"bias to favor Gi-mediated signalling compared to wild type hFFA2, based on cAMP inhibition studies",[5],100–125 fold
same,β factor (compared to WT) K65A,[6]; Pathway 1 GTPγS,1.78
same,β factor (compared to WT) K65A,[6]; Pathway 1 cAMP,2.00
same,β factor (compared to WT) K65R,[7]; Pathway 1 GTPγS,−0.10
same,β factor (compared to WT) K65R,[7]; Pathway 1 cAMP,−0.30
same,β factor (compared to WT) K65E,[8]; Pathway 1 GTPγS,1.62
same,β factor (compared to WT) K65E,[8]; Pathway 1 cAMP,2.10
same,potency in TGFα shedding assay (parental HEK293) higher than in inositol monophosphate accumulation assay,[9]; wild type hFFA2,~10 fold
same,"TGFα shedding response in HEK293 cells lacking Gαq, Gα11, Gα12, Gα13","[9]; wild type hFFA2, all four G protein α subunits eliminated",no TGFα shedding response
same,"loss of agonist potency at Lys65Glu hFFA2 vs wild type, inositol monophosphate accumulation",[10]; Glu substitution,greater than 30 fold
same,maximal effect in cAMP inhibition at Lys65Ala hFFA2,[11],greater than at wild type hFFA2
"O=C(O)C[C@H](Cc1ccc(C(F)(F)F)cc1)NC(=O)Cc1cccc(Cl)c1 [CATPB, (S)-3-(2-(3-chlorophenyl)acetamido)-4-(4-(trifluoromethyl)phenyl)butanoic acid]",antagonism of C3 at Lys65Arg hFFA2,[12],effective and competitive antagonist
same,IC50,[13],19.1 nM
same,binding to bovine FFA2,[14],does not bind CAPTB with high affinity
same,IC50,"[2]; against an EC80 concentration of compound 1, K65A hFFA2, read-out: pIC50 to inhibit inositol monophosphate response, K65A (converted)",437 nM
same,antagonism of C3-mediated inositol monophosphate accumulation at Arg65Lys mFFA2,[15],fully antagonize
same,ability to block compound 1-mediated elevation of inositol monophosphate accumulation at Lys65Arg hFFA2,[16]; EC80 concentration of compound 1,all but abolished
same,IC50,"[16]; against an EC80 concentration of compound 1, K65R hFFA2, read-out: pIC50 to inhibit inositol monophosphate response, K65R (converted)",> 31600 nM
same,IC50,"[10]; against an EC80 concentration of compound 1, K65E hFFA2, read-out: pIC50 to inhibit inositol monophosphate response, K65E (converted)",> 31600 nM
same,effect on C3-stimulated inositol monophosphate production at mFFA2,[17],unaffected

# Reference: PMC5653858, “A single extracellular amino acid in Free Fatty Acid Receptor 2 defines antagonist species selectivity and G protein selection bias” (Scientific Reports, 2017)
